Results reported in US20230172915A1, “DHODH INHIBITOR FOR THE TREATMENT OF COVID-19” (priority 2020, published 2023).

Experiments:
[1] = tested on: HT1080 human fibrosarcoma cells; experiment: De novo pyrimidine nucleotide synthesis from 15N-glutamine in HT1080 cells; assay type: cell-based; conditions: 100 nM
Excerpt: In this Example, fibrosarcoma cells were used to investigate the effect of PTC299 on pyrimidine nucleotide synthesis. Glutamine is an upstream precursor of dihydroorotic acid in the de novo pyrimidine synthesis pathway, as illustrated in FIG. 1.

[2] = target: T1, DHODH (Homo sapiens, UniProt Q02127); experiment: Isolated mitochondria colorimetric assay of DHODH activity; assay type: biochemical; conditions: 0.1, 1, 10, 100, 1000, or 1000 nM
T1 construct: from tissue; host or cells: isolated mitochondria / mitochondria extracts
Excerpt: FIG. 3 is a plot of % inhibition vs compound concentration in nM, illustrating the results of a colorimetric assay of inhibition of DHODH activity in vitro in mitochondria extracts by PTC299, brequinar, and teriflunomide, compared to the negative control, PTC-371.
The latter two compounds are known DHODH inhibitors.

[3] = tested on: SARS-CoV-2 USA-WA1/2020; experiment: PTC299 and remdesivir alone or combined, SARS-CoV-2 titer in Vero cells (TCID50); assay type: cell-based; conditions: remdesivir 5 µM, 24 hours post infection

T1 sequence (Q02127 whole entry, species assumed): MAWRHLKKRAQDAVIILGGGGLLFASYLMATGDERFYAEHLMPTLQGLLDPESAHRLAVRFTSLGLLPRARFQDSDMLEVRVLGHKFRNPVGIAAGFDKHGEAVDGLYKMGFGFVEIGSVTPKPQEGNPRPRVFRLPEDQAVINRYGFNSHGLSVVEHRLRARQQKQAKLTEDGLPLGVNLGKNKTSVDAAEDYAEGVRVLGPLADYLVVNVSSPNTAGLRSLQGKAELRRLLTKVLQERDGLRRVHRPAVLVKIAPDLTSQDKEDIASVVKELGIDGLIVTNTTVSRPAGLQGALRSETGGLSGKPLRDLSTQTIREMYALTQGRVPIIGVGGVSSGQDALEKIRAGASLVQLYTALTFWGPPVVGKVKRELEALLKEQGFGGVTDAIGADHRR

Row | SMILES | suppression of de novo pyrimidine nucleotide biosynthesis [1] | inhibition of DHODH activity [2] | reduction in titer relative to untreated control [3] [%]
1 | COc1ccc(C2c3[nH]c4ccc(Cl)cc4c3CCN2C(=O)Oc2ccc(Cl)cc2)cc1 (stereo not drawn) [PTC-371, reference compound] | did not suppress de novo pyrimidine nucleotide biosynthesis | no inhibition was observed | 
2 | CCC(CC)COC(=O)[C@H](C)N[P@](=O)(OC[C@H]1O[C@@](C#N)(c2ccc3c(N)ncnn23)[C@H](O)[C@@H]1O)Oc1ccccc1 [Remdesivir, remdesivir, reference compound] |  |  | 86
